From patent US5236901A, “Treatment for irritable bowel syndrome” (Research Corporation Technologies, Inc., priority 1991, dated 1993)
No end group written: not given here.

Tests used:
Sprague-Dawley rats [1] = assay: Gastric emptying of 51Cr after exogenous CRF; assay type: in vivo, rat; conditions: CRF 1.0 to 10.0 ug i.v. or i.c.v.; FIG. 1A
Protocol: (§1) Female Sprague-Dawley rats (150-200 g) are used in all tests described herein. The animals are housed in groups of five in a temperature-controlled room on a 12 hour light-dark cycle (7:00 AM to 7:00 PM) and are allowed water and rat chow ad libitum. Animals are allowed at least one week to recover from shipping before experiments are performed. Gastrointestinal transit, a measure of the propulsive motor activity of the intestine, is evaluated by the geometric center method (Miller et al., 1981, J. Pharmacol. Methods 6:211-217), in which a nonabsorable radioactive marker, ^51 Cr (0.2 ml) as sodium chromate in distilled water, is instilled directly into the proximal duodenum and proximal colon via Silastic cannulas surgically implanted under Equithesin anesthesia 3-5 days earlier. Thirty-five minutes after administration of the chromium, the animals are killed, and the stomach and intestine are removed and counted for gamma radiation. Gastric emptying is evaluated by quantitating the percent radioactivity emptied from the stomach in a 15 minute period. Radiochromium in distilled water (0.2 ml) is administered by oral gavage, and the animals are killed and emptying assessed 15 minutes later. CRF or vehicle is administered intravenously or intracerebroventricularly immediately before ^51 Cr.

plasma ACTH = assay: Plasma ACTH concentrations by radioimmunoassay after CRF; assay type: in vivo, rat; conditions: CRF 0.3 ug i.v.; for Plasma ACTH Concentration: mean ± SE
Protocol: CRF and alpha-helical CRF-(9-41) are purchased from Bachem. Drugs are diluted in distilled water, and NaOH (0.1 N) added to the solution, 1 ul at a time, until the compounds [CRF and alpha-helical CRF-(9-41)]go into solution, at a pH of ~6.8. The solutions are aliquotted into 25- and 50-ug supplies, lyophilized, and stored in a desiccator at 4°-8° C. until needed. Radioimmunoassay kits for determination of plasma levels of ACTH are purchased from ImmunoNuclear.
The following example compares the endocrine response to a low dose of exogenous CRF (0.3 ug i.v.) and to stress-induced release of endogenous CRF by measuring plasma ACTH concentrations by radioimmunoassay in animals that are wrap restrained or treated with CRF.
Blood is drawn from an indwelling jugular cannula, surgically placed under Equithesin anesthesia 3 days earlier. Blood (0.2 ml) is drawn 10 minutes before treatment, as well as 5, 10, 20, 30, 45, and 60 minutes after CRF administration or wrap-restraint stress. Blood is also drawn at the same time points from control animals are briefly ether anesthetized but which are not stressed or drug treated.

Sprague-Dawley rats [2] = assay: Small and large intestinal transit (geometric center method) and fecal output after exogenous CRF; assay type: in vivo, rat
Protocol: as §1

pituitary ACTH release = conditions: Rivier et al., 1984, cited from earlier work
Sprague-Dawley rats [3] = assay: Wrap-restraint stress-induced intestinal dysfunction, antagonist pretreatment; assay type: in vivo, rat
Protocol: as §1, with “Gastrointestinal” for “Female Sprague-Dawley rats (150-200 g) are used in all tests described herein. The animals are housed in groups of five in a temperature-controlled room on a 12 hour light-dark cycle (7:00 AM to 7:00 PM) and are allowed water and rat chow ad libitum. Animals are allowed at least one week to recover from shipping before experiments are performed. Gastrointestinal”
Wrapping-restraint stress, a relatively mild, nonulcerogenic model of restraint is used in all stress studies. Stressed animals are lightly anesthetized with ether, and their trunk, shoulders, and upper forelimbs are wrapped in a confining harness of masking tape. Control animals are lightly ether anesthetized but are not wrapped. Radiochromium is then administered, and the animals are killed 35 minutes later to assess intestinal transit. All stress experiments are performed in the late afternoon (4:00 to 7:00 PM) due to a strong circadian influence on the degree of intestinal dysfunction associated with stress at different times of the day. […]

Sprague-Dawley rats [4] = assay: Intestinal transit after alpha-helical CRF-(9-41) alone or against exogenous CRF; assay type: in vivo, rat
Protocol: as §1, with “Gastrointestinal” for “Female Sprague-Dawley rats (150-200 g) are used in all tests described herein. The animals are housed in groups of five in a temperature-controlled room on a 12 hour light-dark cycle (7:00 AM to 7:00 PM) and are allowed water and rat chow ad libitum. Animals are allowed at least one week to recover from shipping before experiments are performed. Gastrointestinal”
Since CRF is likely to play an essential role in initiating both endocrine and autonomic responses to stress, it is probable that CRF mediates the effects of stress on the gut and that blockade of CRF receptors would lessen stress-induced disordered transit. […] The antagonist, alpha-helical CRF-[…] (50 ug, i.v. or i.c.v.), has no effect on small or larger intestinal transit itself when administered into the brain or the bloodstream.

[5] = antagonist 50 ug i.v. or i.c.v., CRF 3 and 10 ug i.v. or i.c.v., same route

Corticotropin-releasing factor (SQEPPISLDLTFHLLREVLEMTKADQLAQQAHSNRKLLDIA; ends and bridges not checked; UniProt P01142 148-188, looked up) [CRF, peptide comprising 41 amino acid residues, first characterized from ovine hypothalamic extracts; purchased from Bachem]
Gastric emptying (Sprague-Dawley rats [1]): inhibited in a dose-dependent manner | Peak levels of ACTH compared with wrap-restraint stress (plasma ACTH): very similar | Time course of ACTH release compared with stress-induced ACTH release (plasma ACTH): more rapid time course | Plasma ACTH Concentration (plasma ACTH; 5 minutes after administration): 619 ± 70 pg/mL | Plasma ACTH Concentration (plasma ACTH; 10 minutes after administration): 494 ± 108 pg/mL | Plasma ACTH Concentration (plasma ACTH; 20 minutes after administration): 265 ± 93 pg/mL | Plasma ACTH Concentration (plasma ACTH; 30 minutes after administration): 174 ± 24 pg/mL | Plasma ACTH Concentration (plasma ACTH; 45 minutes after administration): 146 ± 33 pg/mL | Plasma ACTH Concentration (plasma ACTH; 60 minutes after administration): 141 ± 49 pg/mL | Plasma ACTH Concentration (plasma ACTH; time head +10 (10 minutes before treatment)): 64 ± 4 pg/mL | Response of the gut to CRF compared with restraint stress (Sprague-Dawley rats [2]; CRF 0.3 ug i.c.v., gastric emptying, small and large intestinal transit, fecal pellet output, FIG. 2): identical both in direction and degree | Fecal pellet output (Sprague-Dawley rats [2]; CRF 0.3 to 10.0 ug): increased | Small intestinal transit (Sprague-Dawley rats [2]; CRF 0.3 to 10.0 ug i.v. or i.c.v., FIG. 1B): inhibits | Colonic transit (Sprague-Dawley rats [2]; CRF 0.3 to 10.0 ug i.v. or i.c.v., FIG. 1C): increases | Diarrhea (Sprague-Dawley rats [2]; CRF at higher doses): diarrhea | Lowest effective dose (Sprague-Dawley rats [2]; i.c.v., gastric and intestinal effects): 0.3 µg | Effectiveness of i.v. versus i.c.v. administration (Sprague-Dawley rats [2]; intravenously versus intracerebroventricularly administered CRF): equally effective

alpha-helical CRF-(9-41)
Agonist activity (pituitary ACTH release): little agonist activity | Effects of CRF and stress on pituitary ACTH release (pituitary ACTH release; both in vivo and in vitro): effectively antagonizes | Stress-induced inhibition of small intestinal transit (Sprague-Dawley rats [3]; 50 ug i.c.v. or i.v. immediately before stress, FIG. 3A): did not affect | Stress-induced increase in large intestinal transit (Sprague-Dawley rats [3]; 50 ug i.c.v. or i.v. immediately before stress, FIG. 3B): completely blocked | Stress-induced increase in fecal pellet output (Sprague-Dawley rats [3]; 50 ug i.c.v. or i.v. immediately before stress, FIG. 3C): significantly diminished | Stress-induced increase in colonic transit, higher dose versus 50 ug (Sprague-Dawley rats [3]; 100 μg i.c.v.): did not result in a further decrease | Stress-induced increase in fecal excretion, higher dose versus 50 ug (Sprague-Dawley rats [3]; 100 μg i.c.v.): did not result in a further decrease | Stress-induced inhibition of small intestinal transit (Sprague-Dawley rats [3]; 100 μg i.c.v.): did not affect | Large intestinal transit, antagonist alone (Sprague-Dawley rats [4]; 50 ug, i.v. or i.c.v.): has no effect | Small intestinal transit, antagonist alone (Sprague-Dawley rats [4]; 50 ug, i.v. or i.c.v.): has no effect | Effects of exogenous CRF on large intestinal transit (Sprague-Dawley rats [4]; [5]): effectively antagonizes | Effects of exogenous CRF on small intestinal transit (Sprague-Dawley rats [4]; [5]): effectively antagonizes
